The assay has as its target T1, Protein mono-ADP-ribosyltransferase PARP15 (Homo sapiens) (UniProt Q460N3).
T1 sequence (whole entry): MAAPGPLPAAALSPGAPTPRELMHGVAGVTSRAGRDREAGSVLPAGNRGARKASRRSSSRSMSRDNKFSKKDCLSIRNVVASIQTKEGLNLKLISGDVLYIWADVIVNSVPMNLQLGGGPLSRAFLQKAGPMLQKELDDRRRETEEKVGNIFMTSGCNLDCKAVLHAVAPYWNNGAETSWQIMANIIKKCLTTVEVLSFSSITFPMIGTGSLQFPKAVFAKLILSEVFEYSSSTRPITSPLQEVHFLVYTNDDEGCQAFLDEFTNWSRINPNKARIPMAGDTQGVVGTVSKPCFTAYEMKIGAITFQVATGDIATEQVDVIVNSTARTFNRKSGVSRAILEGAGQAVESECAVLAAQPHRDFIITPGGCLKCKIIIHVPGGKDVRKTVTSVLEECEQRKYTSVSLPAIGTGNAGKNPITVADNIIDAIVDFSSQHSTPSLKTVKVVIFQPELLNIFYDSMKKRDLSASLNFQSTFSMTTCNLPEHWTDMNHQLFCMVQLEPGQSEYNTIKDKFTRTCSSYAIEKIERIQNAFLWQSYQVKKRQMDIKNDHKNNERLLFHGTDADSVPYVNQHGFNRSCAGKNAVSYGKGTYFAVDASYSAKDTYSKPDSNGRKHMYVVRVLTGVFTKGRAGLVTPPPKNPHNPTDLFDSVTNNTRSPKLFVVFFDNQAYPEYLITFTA

Each structure is given as a SMILES string.

Description: Binding affinity at human recombinant ARTD7 expressed in Escherichia coli BL21 (DE3) R3 pRARE cells assessed as thermal stability shift by differential scanning fluorimetry

For orientation: ΔTm means the change in melting temperature against a reference sample. On to `NC(=O)c1cccc(NC(=O)/C=C\C(=O)O)c1`, for which the ΔTm was 0.8 °C.

The values above are taken from ChEMBL document CHEMBL2176940, “Discovery of ligands for ADP-ribosyltransferases via docking-based virtual screening” (J Med Chem, 2012).
